# Laboratory results published in patent US20230114241A1, “METHODS OF TREATING EPILEPSY USING THE SAME” (Trevena, Inc., priority 2019, published 2023).
# Assays:
# [1] = target: T1, human sphingosine-1-phosphate receptor 1 (S1P1) (Homo sapiens, UniProt P21453); assay: Inhibition of cAMP production (HTRF cAMP HiRange), S1P1 CHO-K1 cells; type: cell-based; conditions: for Emax: CHO-K1, efficacy normalized to maximum efficacy of fingolimod, read-out: hS1P1 CAMP SPAN; for EC50: read-out: hS1P1 CAMP pEC50 (converted)
# Summary of the method: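 Intracellular cAMP changes read by TR-FRET (HTRF HiRange, 1 h room temperature) after 30 min compound exposure at 37 °C. Cells: overnight-plated CHO-K1 stably expressing tagged human S1P1 with EA-β-arrestin2. Responses normalized to fingolimod.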
# Target sequence in this assay (P21453 whole entry): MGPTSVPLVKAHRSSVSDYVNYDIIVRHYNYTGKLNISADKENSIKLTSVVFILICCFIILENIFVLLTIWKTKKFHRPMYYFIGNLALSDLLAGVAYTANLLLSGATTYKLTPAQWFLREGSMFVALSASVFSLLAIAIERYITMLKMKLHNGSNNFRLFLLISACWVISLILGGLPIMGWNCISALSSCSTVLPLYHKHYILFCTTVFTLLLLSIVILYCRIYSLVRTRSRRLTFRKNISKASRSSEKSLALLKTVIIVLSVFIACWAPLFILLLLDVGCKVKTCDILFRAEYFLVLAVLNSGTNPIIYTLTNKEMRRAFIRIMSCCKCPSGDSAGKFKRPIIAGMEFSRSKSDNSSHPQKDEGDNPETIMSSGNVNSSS
# [2] = target: T1, human sphingosine-1-phosphate receptor 1 (S1P1); assay: β-Arrestin2 recruitment assay (PathHunter), S1P1 CHO-K1 cells; type: cell-based; conditions: for Emax: efficacy normalized to maximum efficacy of fingolimod, read-out: hS1P1 B-arrestin2 SPAN; for EC50: β-arrestin2 recruitment, read-out: hS1P1 B-arrestin2 pEC50 (converted)
# Summary of the method: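 Agonist-driven β-arrestin2 recruitment measured by β-galactosidase complementation after 60 min compound exposure at 37 °C and 1 h detection at room temperature. Cells: stable CHO-K1 line expressing tagged human S1P1 with EA-β-arrestin2, plated the night before. Data expressed relative to fingolimod.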
# Target sequence in this assay (P21453 whole entry): as above
# Target sequence in this assay (P32121 whole entry partner): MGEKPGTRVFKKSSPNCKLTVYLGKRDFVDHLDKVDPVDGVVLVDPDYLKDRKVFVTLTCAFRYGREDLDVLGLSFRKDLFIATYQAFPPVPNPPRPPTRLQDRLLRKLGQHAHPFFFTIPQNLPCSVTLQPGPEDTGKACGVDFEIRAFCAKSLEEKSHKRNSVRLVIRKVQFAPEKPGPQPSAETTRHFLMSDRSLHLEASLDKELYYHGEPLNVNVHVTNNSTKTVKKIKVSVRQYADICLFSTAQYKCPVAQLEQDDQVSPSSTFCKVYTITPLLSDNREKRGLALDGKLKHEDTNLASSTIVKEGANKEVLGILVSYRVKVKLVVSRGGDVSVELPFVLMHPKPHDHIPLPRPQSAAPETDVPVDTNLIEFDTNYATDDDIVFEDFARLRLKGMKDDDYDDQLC
# [3] = inhibition of cAMP production, S1P1
# [4] = inhibition of cAMP production, potency
# [5] = CHO-K1, β-arrestin2 recruitment
Structure (SMILES),Emax [1] [%],"EC50 [1, 3] [nM]",Emax ([2]; CHO-K1) [%],EC50 ([2]; S1P1) [nM],Emax ([1]; inhibition of cAMP production) [%],"EC50 [1, 4] [nM]","Emax [2, 5] [%]",EC50 ([2]; potency) [nM]
"CC(C)n1ccc2nc(-c3nc(-c4ccccc4Br)cs3)ccc21 [Compound 412, 4-(2-bromophenyl)-2-(1-isopropyl-1H-pyrrolo[3,2-b]pyridin-5-yl)thiazole]",> 75,> 316,< 75,> 10000,,,,
"COc1ccc2oc(-c3ccc4c(c3)nnn4C(C)C)nc2c1 [Compound 425, 2-(1-isopropyl-1H-benzo[d][1,2,3]triazol-5-yl)-5-methoxy-benzo[d]oxazole]",> 75,< 316,> 75,< 10000,,,,
"CC(C)Nc1ccc(-c2nc(-c3ccc4c(c3)CCNC4=O)no2)cc1C#N [Compound 442, 2-(isopropylamino)-5-(3-(1-oxo-1,2,3,4-tetrahydroisoquinolin-6-yl)-1,2,4-oxadiazol-5-yl)benzonitrile]",> 75,< 316,> 75,< 10000,,,,
"CCC1(CC)CC(=O)c2cc(-c3nc(-c4cncc(OC)c4)no3)ccc2O1 [Compound 311, 2,2-diethyl-6-(3-(5-methoxypyridin-3-yl)-1,2,4-oxadiazol-5-yl)chroman-4-one]",,,,,> 75,> 316,> 75,> 10000
"COc1ccccc1-c1noc(-c2ccc3c(ccn3C(C)C)c2)n1 [Compound 372, 5-(1-isopropyl-1H-indol-5-yl)-3-(2-methoxy-phenyl)-1,2,4-oxadiazole]",> 75,< 316,> 75,< 10000,,,,
"CC(C)n1ccc2cc(-c3noc(-c4ccncc4)n3)ccc21 [Compound 395, 3-(1-isopropyl-1H-indol-5-yl)-5-(pyridin-4-yl)-1,2,4-oxadiazole]",< 75,< 316,> 75,< 10000,,,,
"Cc1cc(-c2nc(-c3ccc4c(c3)nnn4C(C)C)no2)cnc1C [Compound 201, 5-(5,6-dimethyl-pyridin-3-yl)-3-(1-isopropyl-1H-benzo[d][1,2,3]triazol-5-yl)-1,2,4-oxadiazole]",,,,,< 75,> 316,> 75,> 10000
"Cc1cccc2oc(-c3ccc4c(c3)nnn4CC(C)C)nc12 [Compound 447, 2-(1-isobutyl-1H-benzo[d][1,2,3]triazol-5-yl)-4-methyl-benzo[d]oxazole]",> 75,< 316,< 75,< 10000,,,,
"C=CCn1nnc2cc(-c3nc(-c4ccccc4)no3)ccc21 [Compound 270, 5-(3-phenyl-1,2,4-oxadiazol-5-yl)-1-(prop-2-en-1-yl)-1H-1,2,3-benzotriazole]",,,,,< 75,> 316,< 75,> 10000
"CC(C)n1ccc2cc(-c3noc(-c4cccc(F)c4)n3)ccc21 [Compound 394, 5-(3-fluorophenyl)-3-(1-isopropyl-1H-indol-5-yl)-1,2,4-oxadiazole]",< 75,> 316,< 75,< 10000,,,,
"CC(C)n1nnc2cc(-c3nc(-c4ccc(-c5ccccc5)cn4)no3)ccc21 [Compound 9, 5-[3-(5-phenylpyridin-2-yl)-1,2,4-oxadiazol-5-yl]-1-(propan-2-yl)-1H-1,2,3-benzotriazole]",,,,,< 75,> 316,< 75,> 10000
"CC(C)n1nnc2cc(-c3nc(-c4ccc(Oc5ccccc5)cc4)no3)ccc21 [Compound 15, 5-[3-(4-phenoxyphenyl)-1,2,4-oxadiazol-5-yl]-1-(propan-2-yl)-1H-1,2,3-benzotriazole]",,,,,> 75,> 316,< 75,> 10000
"CCC1(CC)CC(=O)c2cc(-c3nc(-c4ccc[nH]4)no3)ccc2O1 [Compound 464, 6-(3-(1H-pyrrol-2-yl)-1,2,4-oxadiazol-5-yl)-2,2-diethylchroman-4-one]",< 75,< 316,< 75,> 10000,,,,
"CCC1(CC)CC(=O)c2cc(-c3nc(-c4cccc(O)c4)no3)ccc2O1 [Compound 227, 2,2-diethyl-6-[3-(3-hydroxyphenyl)-1,2,4-oxadiazol-5-yl]chroman-4-one]",,,,,< 75,< 316,> 75,> 10000
"CC(C)n1nnc2cc(-c3nc4cccc(Br)c4o3)ccc21 [Compound 429, 7-bromo-2-(1-isopropyl-1H-benzo[d][1,2,3]triazol-5-yl)benzo[d]oxazole]",> 75,> 316,> 75,> 10000,,,,
"CC(C)n1ccc2cc(-c3noc(-c4ccccc4C(F)(F)F)n3)ccc21 [Compound 390, 3-(1-isopropyl-1H-indol-5-yl)-5-(2-(trifluoromethyl)phenyl)-1,2,4-oxadiazole]",> 75,< 316,< 75,< 10000,,,,
"CCC1(CC)CC(=O)c2cc(-c3nc(-c4ccc(S(=O)(=O)NC)cc4)no3)ccc2O1 [Compound 266, 4-(5-(2,2-diethyl-4-oxochroman-6-yl)-1,2,4-oxadiazol-3-yl)-N-methylbenzene-sulfonamide]",,,,,> 75,> 316,> 75,< 10000
"CCC1(CC)CC(=O)c2cc(-c3nc(-c4ccc5c(c4)nnn5C(C)C)ns3)ccc2O1 [Compound 29, 2,2-diethyl-6-(3-(1-isopropyl-1H-benzo[d][1,2,3]triazol-5-yl)-1,2,4-thiadiazol-5-yl)chroman-4-one]",,,,,< 75,> 316,< 75,> 10000
"CCC1(CC)CC(=O)c2cc(-c3nc(-c4ccncc4F)no3)ccc2O1 [Compound 226, 2,2-diethyl-6-(3-(3-fluoropyridin-4-yl)-1,2,4-oxadiazol-5-yl)chroman-4-one]",,,,,> 75,> 316,> 75,> 10000

# Continued, values first:
Emax [1] [%],"EC50 [1, 3] [nM]",Emax ([2]; CHO-K1) [%],EC50 ([2]; S1P1) [nM],Emax ([1]; inhibition of cAMP production) [%],"EC50 [1, 4] [nM]","Emax [2, 5] [%]",EC50 ([2]; potency) [nM],Structure (SMILES)
> 75,> 316,< 75,> 10000,,,,,"CCC1(CC)CC(=O)c2cc(-c3nc(-c4ncccn4)no3)ccc2O1 [Compound 640, 2,2-diethyl-6-(3-(pyrimidin-2-yl)-1,2,4-oxadiazol-5-yl)chroman-4-one]"
< 75,> 316,> 75,> 10000,,,,,"CC(C)n1nnc2cc(-c3noc(-c4ncccc4O)n3)ccc21 [Compound 602, 2-{3-[1-(propan-2-yl)-1H-1,2,3-benzo-triazol-5-yl]-1,2,4-oxadiazol-5-yl}pyridin-3-ol]"
> 75,< 316,> 75,< 10000,,,,,"CC(C)Oc1ccc(-c2ncc(-c3ccc4c(c3)nnn4C(C)C)cn2)cc1C#N [Compound 595, 2-isopropoxy-5-(5-(1-isopropyl-1H-benzo[d][1,2,3]triazol-5-yl)pyrimidin-2-yl)benzonilrile]"
> 75,< 316,< 75,> 10000,,,,,"CC(C)n1nnc2cc(-c3nc(-c4ccc5nonc5c4)no3)ccc21 [Compound 498, 5-{5-[1-(propan-2-yl)-1H-1,2,3-benzotriazol-5-yl]-1,2,4-oxadiazol-3-yl}-2,1,3-benzoxadiazole]"
< 75,> 316,< 75,,,,,,"CC(C)(CO)n1nnc2cc(-c3noc(-c4ccc5nc[nH]c5c4)n3)ccc21 [Compound 642, 2-(5-(5-(1H-benzo[d]imidazol-6-yl)-1,2,4-oxadiazol-3-yl)-1H-benzo[d][1,2,3]triazol-1-yl)-2-methylpropan-1-ol]"
< 75,< 316,< 75,< 10000,,,,,"CCC1(CC)CC(=O)c2cc(-c3nc(-c4ccc5[nH]c(=O)[nH]c5c4)no3)ccc2O1 [Compound 539, 5-(5-(2,2-diethyl-4-oxochroman-6-yl)-1,2,4-oxadiazol-3-yl)-1H-benzo[d]imidazol-2(3H)-one]"
> 75,< 316,> 75,< 10000,,,,,"CCC1(CC)CC(=O)c2cc(-c3nc(-c4cncc(N)c4)no3)ccc2O1 [Compound 502, 6-(3-(5-aminopyridin-3-yl)-1,2,4-oxadiazol-5-yl)-2,2-diethylchroman-4-one]"
> 75,< 316,< 75,< 10000,,,,,"Cc1ccsc1-c1nc(-c2ccc3c(c2)nnn3CC(C)(C)CO)no1 [Compound 524, 2,2-dimethyl-3-(5-(5-(3-methylthiophen-2-yl)-1,2,4-oxadiazol-3-yl)-1H-benzo[d] [1,2,3]triazol-1-yl)propan-1-ol]"
> 75,> 316,> 75,< 10000,,,,,"N#Cc1cc(-c2nnc(-c3ccc4[nH]c(=O)oc4c3)o2)ccc1NCCF [Compound 487, 2-[(2-fluoroethyl)amino]-5-[5-(2-oxo-2,3-dihydro-1,3-benzoxazol-6-yl)-1,3,4-oxadiazol-2-yl]benzonitrile]"
> 75,> 316,> 75,> 10000,,,,,"COc1ccc(-c2nc(-c3ccc4c(c3)nnn4CC(C)(C)CO)no2)c(C)c1 [Compound 523, 3-(5-(5-(4-methoxy-2-methylphenyl)-1,2,4-oxadiazol-3-yl)-1H-benzo[d][1,2,3]triazol-1-yl)-2,2-dimethyl-propan-1-ol]"
